# Article PMC4230943, “Mimicking Hypoxia to Treat Anemia: HIF-Stabilizer BAY 85-3934 (Molidustat) Stimulates Erythropoietin Production without Hypertensive Effects” (PLoS ONE, 2014)
# Key:
# [1] = BAY 85-3934 plasma levels after oral administration; type: in vivo, rat
# Protocol: (§1) Male Wistar rats (240–340 g in body weight) were housed with five animals per cage for at least 1 week before experimentation. Blood samples from rats were collected under anesthesia (2% isoflurane in air) by puncturing the retro-orbital vein plexus with a glass capillary. In a repeat-dose, 26-day experiment, animals were administered vehicle or BAY 85-3934 at doses of 0.5 mg/kg, 1.25 mg/kg, 2.5 mg/kg, and 5 mg/kg. PCV was determined at baseline and at weekly intervals after centrifugation in a hematocrit capillary tube (Brand) for 10 min at full speed in a Haemofuge centrifuge (Heraeus). The number of reticulocytes in 5 µl blood was counted after staining with thiazol orange (Becton Dickinson) according to the manufacturer’s instructions by FACS analysis on a BD FACSCalibur system (Becton Dickinson). The efficacy of BAY 85-3934 (2.5 mg/kg, once-daily, oral) was also compared with that of rhEPO (25 IU/kg, 50 IU/kg, and 100 IU/kg, twice-weekly, s.c. injection). The time-course of induction of EPO mRNA expression and plasma EPO was determined at baseline and 0.5 h, 1 h, 2 h, 4 h, 6 h, and 8 h after oral administration of a single dose of BAY 85-3934 (5 mg/kg).
# (§2) EPO was measured in plasma samples taken from rodents using a commercial ELISA kit (R&D Systems), according to the manufacturer’s instructions. Relative plasma EPO levels were given in picograms per milliliter. In cynomolgus monkeys, EPO was measured using a combination anti-human EPO ELISAs (R&D Systems and Roche Diagnostics), with human EPO as a standard. Values were given as units per liter. For determination of plasma prorenin from rats, a commercial ELISA (Oxford Biomedical Research) was used according to the manufacturer’s instructions. Hemoglobin in rodent blood samples was determined on a Cell-Dyn 3700 apparatus (Abbott Diagnostics). BAY 85-3934 plasma concentrations were determined after protein precipitation with acetonitrile/ammonium acetate using an internal standard, followed by separation using HPLC/mass spectrometry.
# male Wistar rats [2] = experiment: Time-course of kidney mRNA expression (EPO, HIF target genes) and plasma EPO after a single dose; type: in vivo, rat
# Protocol: as §1, §2
# Total RNA was extracted from shock-frozen cell or tissue samples using the TRIzol method. Integrity of obtained RNA was checked on a Bioanalyzer (Agilent Technologies). For reverse transcription, 1 µg of total RNA was digested with RNase-free DNase I (Gibco) for 15 min at room temperature, and then reverse-transcribed using Promiscript (Promega GmbH) in a total reaction volume of 40 µl according to the standard protocol of the supplier. After inactivation of the enzyme by heating to 65°C for 15 min, the obtained cDNA was diluted to a final volume of 150 µl with double-distilled water, and 4 µl used per PCR reaction. qRT-PCR, including normalization of raw data to cytosolic β-actin, was carried out as described previously. The resulting expression is given in arbitrary units.
# cynomolgus monkeys [3] = experiment: 5-day repeat-dose study of plasma EPO response; type: in vivo, cynomolgus monkey
# Protocol: (§3) Male and female cynomolgus monkeys (2.8–5.6 kg in body weight) were used, which were housed two per cage. Blood samples from conscious cynomolgus monkeys were taken by puncturing a superficial vein. In a 5-day, repeat-dose study of plasma EPO response, BAY 85-3934 was administered at doses of 0.5 mg/kg and 1.5 mg/kg at 0 h, 24 h, 48 h, 72 h, and 96 h. Blood samples were taken at 7 h, 31 h, 55 h, 79 h, 103 h, and 168 h. Erythropoietic parameters were also evaluated after a 2-week treatment period with s.c. administration of rhEPO (100 IU/kg twice weekly at days 1, 4, 8, and 11) and BAY 85-3934 (1.5 mg/kg) once daily.
# as §2
# A multiple-dose study in cynomolgus monkeys was conducted to evaluate whether repeat administration of BAY 85-3934 would result in EPO accumulation and/or adaptation of the EPO response. […] In all groups, EPO concentrations had returned to baseline concentrations 24 h after administration of the study drug. […] Platelet and white blood cell counts were unchanged. With respect to EPO induction, the 0.5 mg/kg dose was determined as the minimal effective dose in this study, although statistical significance versus control animals was not reached in this small and heterogeneous animal cohort.
# cynomolgus monkeys [4] = experiment: Comparison of BAY 85-3934 with rhEPO (single dose and 14-day repeat dose); type: in vivo, cynomolgus monkey
# Protocol: as §3, §2
# In a further study, the efficacy of oral treatment with BAY 85-3934 was evaluated in comparison with rhEPO. Animals were administered a single dose of rhEPO (100 IU/kg) by s.c. injection or BAY 85-3934 (1.5 mg/kg, oral). After administration of rhEPO, plasma concentrations of rhEPO were more than 8-fold higher than the endogenous EPO levels induced by treatment with BAY 85-3934 (Fig. 3B). The area under the curve (AUC) of rhEPO was more than 6-fold higher than the AUC of endogenous EPO. […] Mean reticulocyte counts were 2-fold higher after treatment with rhEPO than after treatment with BAY 85-3934, but returned to baseline values 8 days after treatment cessation.
# male Wistar rats [5] = experiment: Subtotal nephrectomy (remnant kidney) model; type: in vivo, rat; settings: same dose for 3 days, data not shown
compound,measurement,setting,value
"O=c1c(-n2ccnn2)c[nH]n1-c1cc(N2CCOCC2)ncn1 [BAY 85-3934, 2-[6-(morpholin-4-yl)pyrimidin-4-yl]-4-(1H-1,2,3-triazol-1-yl)-1,2-dihydro-3H-pyrazol-3-one]",fraction of BAY 85-3934 eliminated from the plasma,[1]; 6 h after 5 mg/kg oral,~90%
same,half-life,"[1]; rat, plasma, oral, 5 mg/kg, male Wistar rats",3.4 h
same,bioavailability,"[1]; rat, plasma, po, 5 mg/kg, male Wistar rats",~38%
same,time of maximum EPO plasma concentration,"male Wistar rats [2]; 5 mg/kg oral, single dose",6 h
same,time of peak kidney EPO mRNA expression,"male Wistar rats [2]; 5 mg/kg oral, single dose",2 h
same,kidney mRNA induction of the other genes examined (moderate or absent),male Wistar rats [2]; 5 mg/kg single dose,less than 2 fold
same,"time of peak mRNA levels of HMOX-1, IGFBP-1, adrenomedullin, ANGPTL-4","male Wistar rats [2]; 5 mg/kg single dose, kidney",2 h
same,kidney ANGPTL-4 mRNA induction factor,"male Wistar rats [2]; 5 mg/kg single dose, p<0.01",3.8 fold
same,kidney HMOX-1 mRNA induction factor,"male Wistar rats [2]; 5 mg/kg single dose, p<0.01",3.2 fold
same,kidney adrenomedullin mRNA induction factor,"male Wistar rats [2]; 5 mg/kg single dose, p<0.01",2.3 fold
same,kidney insulin-like growth factor binding protein-1 mRNA induction factor,"male Wistar rats [2]; 5 mg/kg single dose, p<0.01",2.2 fold
same,kidney EPO mRNA induction over baseline,"male Wistar rats [2]; 5 mg/kg single dose, peak at 2 h",about 50 fold
same,plasma EPO 7 h after administration,"cynomolgus monkeys [3]; 1.5 mg/kg oral, all animals",significantly induced
same,time after administration at which EPO had returned to baseline,"cynomolgus monkeys [3]; 0.5 and 1.5 mg/kg, all groups",24 h
same,adaptation of the EPO response after repeated dosing,cynomolgus monkeys [3]; once daily for 5 days,no adaptation
same,platelet and white blood cell counts,cynomolgus monkeys [3]; once daily for 5 days,unchanged
same,minimal effective dose for EPO induction,cynomolgus monkeys [3]; statistical significance versus control not reached,0.5 mg/kg
same,"mean gains of hemoglobin and red blood cells, both treatments compared","cynomolgus monkeys [4]; 14 days, rhEPO 100 IU/kg twice weekly s.c., BAY 85-3934 1.5 mg/kg once daily",almost completely congruent over time
same,"induced EPO peak concentrations, factor within the normal physiological range",cynomolgus monkeys [4]; chronic once-daily administration,approximately 2 fold
same,blood pressure in normotensive rats,male Wistar rats [5],did not affect blood pressure
